# Measurements taken from US4259332A, “Novel taurine derivatives” (priority 1979, dated 1981).
# Key:
# [1] = Protection against hepatic intoxication by CCl4 and cold, Compound A (BSF in blood); type: in vivo; details: 500 mg/kg simultaneously with CCl4; 5 h at 4° C.
# Procedure: Oral administration of 5 ml/kg of a 20% solution of CCl4 in oil was followed by exposure for 5 hours to a temperature of 4° C. 500 Mg/kg of the Compound A of the invention were administered simultaneously with the CCl4. The BSF was tested in the blood. An average of 20 animals were used per group, and relative to the controls there was a reduction of 16%.
# [2] = Choleretic activity in cannulated rats; type: in vivo, rat
# Procedure: Rats were fitted with a cannula, the bile volume was measured after the first hour, they were then treated with a test compound and the bile volume was measure after the second hour, so as to determine the percentage change. The various compounds were administered intravenously at a dose of 100 mg/kg.
# [3] = Vasodilator activity (vasodilation of the ocular conjunctiva in guinea pigs); type: in vivo, guinea pig
# [4] = Antilipemic action, Morris or Handler diet, Compound A; type: in vivo, Wistar rat; details: for Bile BSF excretion, percentage change vs controls / Serum beta-lipoproteins, percentage change vs controls / Serum total cholesterol, percentage change vs controls / Serum total lipids, percentage change vs controls: 50 days, 200 mg/kg orally
# Procedure: Wistar rats were treated for 50 days with a Morris diet or a Handler diet. Simultaneously with the diet they received 200 mg/kg of Compound A or of choline orally every day. The controls only received the diet. The following were examined at the end of the treatment: (a) total cholesterol, total lipids and beta-lipoproteins in the serum, (b) BSF excretion in the bile.
# [5] = Toxicology, oral treatment of mice for 180 days, Compound A; type: in vivo, mouse; details: 200 mg/kg orally
# [6] = 100 mg/kg i.v., given after first hour
smiles,measurement,setting,value
"O=C(OCCN(CCS(=O)(=O)O)C(=O)c1cccnc1)c1cccnc1 [Compound A, N-nicotinoyl-N-(2-nicotinoyloxy)ethyltaurine]",Reduction of BSF in the blood relative to controls,[1],16%
same,Bile dry residue change,[2]; 100 mg/kg i.v.,+40.0%
same,Bile volume change,[2]; 100 mg/kg i.v.,+52.0%
same,Choleretic activity (in words),[2]; 100 mg/kg i.v.,appearance of choleretic activity
same,Bile dry residue after 2 h,[2]; [6],35.3 mg/h
same,Bile volume after 2 h,[2]; [6],1.14 mL/h
same,Bile dry residue after 1 h,[2]; before treatment (first hour),25.7 mg/h
same,Bile volume after 1 h,[2]; before treatment (first hour),0.75 mL/h
same,Vasodilator effect: duration,[3]; 0.1 mg/kg endoperitoneal,0 min
same,Vasodilator effect: positive response,[3]; 0.1 mg/kg endoperitoneal,0%
same,Vasodilator effect: duration,[3]; 1.0 mg/kg endoperitoneal,120 min
same,Vasodilator effect: positive response,[3]; 1.0 mg/kg endoperitoneal,80%
same,Vasodilator effect: time of appearance,[3]; 1.0 mg/kg endoperitoneal,90 s
same,Vasodilator effect: duration,[3]; 10.0 mg/kg endoperitoneal,120 min
same,Vasodilator effect: positive response,[3]; 10.0 mg/kg endoperitoneal,100%
same,Vasodilator effect: time of appearance,[3]; 10.0 mg/kg endoperitoneal,96 s
same,Vasodilator activity (in words),[3]; endoperitoneal,better activity than the 3-pyridylcarbinol compound
same,"Bile BSF excretion, percentage change vs controls",[4]; Handler diet,+36.0%
same,"Serum beta-lipoproteins, percentage change vs controls",[4]; Handler diet,-28.9%
same,"Serum total cholesterol, percentage change vs controls",[4]; Handler diet,-26.9%
same,"Serum total lipids, percentage change vs controls",[4]; Handler diet,-19.6%
same,"Bile BSF excretion, percentage change vs controls",[4]; Morris diet,+23.5%
same,"Serum beta-lipoproteins, percentage change vs controls",[4]; Morris diet,-34.3%
same,"Serum total cholesterol, percentage change vs controls",[4]; Morris diet,-14.3%
same,"Serum total lipids, percentage change vs controls",[4]; Morris diet,-17.0%
same,Oral absorption (deduced from diet tests),"[4]; oral, Morris and Handler diets",absorbed orally
same,Mortality,[5],no mortality
